The target of the assay is T1, Dihydrofolate reductase (Bos taurus) (UniProt P00376).
T1 sequence (whole entry): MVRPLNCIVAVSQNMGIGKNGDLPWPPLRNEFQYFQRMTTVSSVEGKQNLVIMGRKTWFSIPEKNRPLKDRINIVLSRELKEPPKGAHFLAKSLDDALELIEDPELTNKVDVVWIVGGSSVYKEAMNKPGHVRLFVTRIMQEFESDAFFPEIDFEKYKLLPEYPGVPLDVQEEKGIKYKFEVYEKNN

We go through 7 compounds from ChEMBL document CHEMBL3227947, “Quantitative structure-activity relationship of 5-(X-benzyl)-2,4-diaminopyrimidines inhibiting bovine liver dihydrofolate reductase” (J Med Chem, 1979).

Description: Inhibition of bovine liver dihydrofolate reductase using dihydrofolic acid as substrate

On to `Nc1ccc(Cc2cnc(N)nc2N)cc1`, for which the log(1/I50) came to 4.57.
The figure for `Nc1ncc(Cc2ccc(OC(F)(F)F)cc2)c(N)n1` is 4.99; for `COc1cccc(Cc2cnc(N)nc2N)c1` it is 5.02; for `Nc1ncc(Cc2cccc(C(F)(F)F)c2)c(N)n1` it is 5.53.
The value for `COc1ccc(Cc2cnc(N)nc2N)cc1OC` was 5.15; that for `CC(=O)Nc1ccc(Cc2cnc(N)nc2N)cc1[N+](=O)[O-]` was 5.16.
With `Cc1ccc(Cc2cnc(N)nc2N)cc1`, the log(1/I50) is 4.8.
